According to ChEMBL document CHEMBL4376830, “Diterpenoids and Bisnorditerpenoids from Blumea aromatica” (2019):
The source made the active and inactive calls. The calls are words filed in the database; no cut-off is given here.

Legend:
[1] = species: Mus musculus; test: Anti-immunosuppressive activity in LPS-activated mouse MDSC assessed as reduction in PD-L1 expression at 20 to 40 uM incubated for 24 hrs by flow cytometry; assay type: functional
[2] = tested on: RAW264.7; test: Anti-inflammatory activity in LPS-stimulated mouse RAW264.7 cells assessed as reduction in TNF-alpha production at 40 uM by ELISA relative to control; assay type: functional

Row | Compound | inhibition [1] | inhibition at 40 µM [2] [%]
1 | CC(=O)/C=C/[C@H]1[C@](C)(O)[C@@H](O)[C@H](O)[C@H]2C(C)(C)CCC[C@@]21C | inactive | –
2 | C=C/C(C)=C/C[C@H]1[C@](C)(O)[C@@H](O)[C@H](O)[C@H]2C(C)(C)CCC[C@@]21C | inactive | –
3 | O=C(/C=C/c1ccc(O)c(O)c1)O[C@@H]1[C@H](O)C[C@](O)(C(=O)O)C[C@H]1OC(=O)/C=C/c1ccc(O)c(O)c1 | inactive | 15.5
4 | O=C(/C=C/c1ccc(O)c(O)c1)O[C@@H]1C[C@](OC(=O)/C=C/c2ccc(O)c(O)c2)(C(=O)O)C[C@@H](O)[C@@H]1O | inactive | –
5 | O=c1c(O[C@@H]2O[C@H](CO)[C@@H](O)[C@H](O)[C@H]2O)c(-c2ccc(O)cc2)oc2cc(O)cc(O)c12 | inactive | –
6 | CCCCOC(=O)[C@@]1(O)C[C@@H](O)[C@@H](OC(=O)/C=C/c2ccc(O)c(O)c2)[C@H](OC(=O)/C=C/c2ccc(O)c(O)c2)C1 | inactive | –
7 | O=Cc1c[nH]c2ccccc12 | inactive | –
8 | CCC(C)/C(=C/C(=O)O)C(=O)O (stereo unspecified) | inactive | –
9 | CC[C@H](CC[C@@H](C)[C@H]1CC[C@H]2[C@@H]3CC=C4C[C@@H](O)CC[C@]4(C)[C@H]3CC[C@]12C)C(C)C | inactive | –
10 | CCC(C)/C(=C/C(=O)O)C(=O)OC (stereo unspecified) | inactive | –
11 | C=CC(=C)[C@@H](O)C[C@H]1[C@](C)(O)[C@@H](O)[C@H](O)[C@H]2C(C)(C)CCC[C@@]21C | inactive | –
12 | C=C/C(C)=C/C[C@H]1[C@](C)(O)[C@@H](O)[C@H](OC(=O)CC(C)C)[C@H]2C(C)(C)CCC[C@@]21C | inactive | –
13 | O=C(/C=C/c1ccc(O)c(O)c1)O[C@@H]1C[C@@](O)(C(=O)O)C[C@@H](O)[C@H]1O | inactive | –
14 | CC(=O)/C=C/[C@H]1[C@](C)(O)[C@@H](O)[C@H](OC(=O)CC(C)C)[C@H]2C(C)(C)CCC[C@@]21C | inactive | –
15 | O=C(O)/C=C/C(=O)O | inactive | –
16 | O=C(/C=C/c1ccc(O)c(O)c1)O[C@@H]1C[C@](O)(C(=O)O)C[C@@H](OC(=O)/C=C/c2ccc(O)c(O)c2)[C@@H]1O | inactive | –
17 | COc1ccc(-c2oc3cc(O)c(OC)c(O)c3c(=O)c2OC)cc1 [SANTIN] | inactive | 24
18 | C/C=C(/C)C(=O)O[C@H]1[C@H](O)[C@@](C)(O)[C@H](/C=C/C(C)=O)[C@@]2(C)CCCC(C)(C)[C@H]12 | inactive | –
19 | CC1(C)C[C@H](O)C[C@@](C)(O)/C1=C\C(=O)O | inactive | 27.5
20 | C=CC(=C)[C@H](O)C[C@H]1[C@](C)(O)[C@@H](O)[C@H](O)[C@H]2C(C)(C)CCC[C@@]21C | inactive | –
21 | COC(=O)[C@@]1(O)C[C@@H](O)[C@@H](OC(=O)/C=C/c2ccc(O)c(O)c2)[C@H](OC(=O)/C=C/c2ccc(O)c(O)c2)C1 | inactive | –
22 | CC(=O)/C=C/[C@H]1[C@](C)(O)[C@@H](O)[C@H](OC(=O)C=C(C)C)[C@H]2C(C)(C)CCC[C@@]21C | inactive | –
23 | O=C(/C=C/c1ccc(O)c(O)c1)O[C@H]1[C@H](O)C[C@](O)(C(=O)O)C[C@H]1OC(=O)/C=C/c1ccc(O)c(O)c1 | inactive | –
